Data taken from article PMC6287471 (International Journal for Parasitology: Drugs and Drug …, 2018).
Counter-ions that a name gives are not always drawn.

Key:
Hco-ACC-2 WT channel [1] = target: T1, Hco-ACC-2 WT channel (Haemonchus contortus, UniProt A0A219KWM7); details: wild-type channel; partial = maximum response lower than 100% of ACh
T1 sequence (A0A219KWM7 18-443): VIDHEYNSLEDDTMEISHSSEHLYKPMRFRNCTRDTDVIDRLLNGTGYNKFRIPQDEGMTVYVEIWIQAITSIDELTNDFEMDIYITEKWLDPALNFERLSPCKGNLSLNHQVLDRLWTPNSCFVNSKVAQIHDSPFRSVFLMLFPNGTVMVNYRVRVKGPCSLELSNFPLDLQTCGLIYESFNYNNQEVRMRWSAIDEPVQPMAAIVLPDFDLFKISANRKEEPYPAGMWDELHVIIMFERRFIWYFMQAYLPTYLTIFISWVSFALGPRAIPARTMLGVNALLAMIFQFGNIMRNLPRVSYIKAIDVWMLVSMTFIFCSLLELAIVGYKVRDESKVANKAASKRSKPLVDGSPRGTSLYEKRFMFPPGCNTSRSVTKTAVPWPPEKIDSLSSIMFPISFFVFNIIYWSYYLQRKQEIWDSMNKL

Hco-ACC-2 WT channel [2] = target: T1, Hco-ACC-2 WT channel; assay: cell-based; details: EC50 ± standard error, n ≥ 5 oocytes

| Structure (SMILES) | full or partial agonist (Hco-ACC-2 WT channel [1]) | EC50 (Hco-ACC-2 WT channel [2]) |
| --- | --- | --- |
| CC(=O)OCC[N+](C)(C)C [Acetylcholine] | full agonists |  |
| C[N+](C)(C)CCOC(N)=O [Carbachol, Carbamoylcholine Chloride] | partial agonists | 43 ± 4 µM |
| C[N+](C)(C)CCO [Choline, Choline Chloride] |  | 1280 ± 35 µM |
| c1ccc([C@H]2CN3CCSC3=N2)cc1 [Levamisole, Levamisole Hydrochloride] | partial agonists | 98 ± 4 µM |
| CC(=O)OC(C)C[N+](C)(C)C (stereo not drawn) [Methacholine, Acetyl-β-methylcholine Chloride] | full agonists | 100 ± 2 µM |
| CN1CCCN=C1/C=C/c1cccs1 [Pyrantel, Pyrantel Citrate Salt] | partial agonists | 72 ± 4 µM |
| CC(C[N+](C)(C)C)OC(N)=O (stereo not drawn) [Urecholine, Carbamyl-β-methylcholine chloride] | partial agonists | 747 ± 22 µM |
